Results reported in US20030152577A1, “Dye-bioconjugates for simultaneous optical diagnostic and therapeutic applications” (MALLINCKRODT INC., priority 2002, published 2003).

Tests used:
Design in all cases: species or system male Lewis rats
[1] = tested on: DSL 6/A (pancreatic) tumor; assay: Non-invasive in vivo fluorescence imaging of DSL 6/A tumor in rats; settings: 0.5 ml of 0.42 mg/ml in saline, tail vein, images at 2 and 30 minutes post administration
Source text: (§1) A non-invasive in vivo fluorescence imaging apparatus was employed to assess the efficacy of indocyanine green (ICG) in three different rat tumor cell lines of the inventive contrast agents developed for tumor detection in animal models. A LaserMax Inc. laser diode of nominal wavelength 780 nm and nominal power of 40 mW was used. The detector was a Princeton Instruments model RTE/CCD-1317-K/2 CCD camera with a Rodenstock 10 mm F2 lens (stock #542.032.002.20) attached. An 830 nm interference lens (CVI Laser Corp., part # F10-830-4-2) was mounted in front of the CCD input lens, such that only emitted fluorescent light from the contrast agent was imaged.
(§2) Three tumor cell lines, DSL 6/A (pancreatic), Dunning R3327-H (prostate), and CA20948 (pancreatic), which are rich in somatostatin (SST-2) receptors were induced into male Lewis rats by solid implant technique in the left flank area (Achilefu et al., Invest Radiology, 2000, pp. 479-485). Palpable masses were detected nine days post implant.

[2] = tested on: Dunning R3327-H (prostate) tumor; assay: Non-invasive in vivo fluorescence imaging of Dunning R3327-H tumor in rats; settings: 0.5 ml of 0.42 mg/ml in saline, tail vein, images at 2 and 30 minutes post administration
Source text: as §1, §2

[3] = tested on: CA20948 (pancreatic) tumor, rich in somatostatin (SST-2) receptors; assay: Non-invasive in vivo fluorescence imaging of CA20948 tumor bearing rat
Source text: as §1, §2
The peptide, octreotate, is known to target somatostatin (SST-2) receptors. Therefore, the cyano-octreotates conjugate, Cytate 1, was prepared as described in Example 4. The pancreatic acinar carcinoma, CA20948, was induced into male Lewis rats as described in Example 9.
Using the CCD camera apparatus, dye localization in the tumor was observed. […]

SMILES: CC1(C)C(/C=C/C=C/C=C/C=C2\N(CCCCS(=O)(=O)O)c3ccc4ccccc4c3C2(C)C)=[N+](CCCCS(=O)(=O)[O-])c2ccc3ccccc3c21 [ICG, indocyanine green]
- perfusion of the agent into the tumor [1]: slow perfusion of the agent into the tumor over time
- perfusion of the agent into the tumor [2]: slow perfusion of the agent into the tumor over time
- perfusion of the agent into the tumor ([3]; 0.5 ml of 0.42 mg/ml in saline, tail vein, images at 2 and 30 minutes post administration): only a slight and transient perfusion that was cleared after only 30 minutes post injection
- non-specific localization into the tumor line ([3]; compared to the other two lines): no non-specific localization
